Entries after “also recorded” stand apart in the source; their conditions may differ. Blank lines part the entries; values can stand above or below the molecule they belong to. Numbered stars: 1 amine (or outer) side, 2 acyl side, 3 side chain; on linkers, the order of the positions; unused ones are H or OH. Bridge positions count the residues as written; N and C are the ends. Square brackets hold non-standard residues; d marks the D form. Peptide text beside a SMILES is read from it. * marks the point of attachment. Leu(3R-OH,Nα-propionyl) = CCC(=O)N[C@H](C(=O)*)[C@H](O)C(C)C; X1 = CC(C)[C@@H](O[*:3])[C@H](N[*:1])C(=O)[*:2]; NMeT = CN[C@H](C(=O)O)[C@@H](C)O; dPhLac = O=C(O)[C@H](O)Cc1ccccc1; NMeA = CN[C@@H](C)C(=O)O; NMeDha = C=C(NC)C(=O)O
Assays:
P2Y6 [1] = target: T1, P2Y6 (Homo sapiens, UniProt Q15077); experiment: Agonist-induced receptor internalization, cell surface ELISA; assay type: cell-based; set-up: expressed in transfected cells; host or cells: HEK293; conditions: Fig. 5e
Procedure: To estimate cell surface expression of heterologously expressed receptors carrying an N-terminal HA tag, an indirect cellular ELISA was used[57]. To determine the endogenous cell surface expression of P2Y6, the same ELISA procedure was performed with minor modifications. Briefly, after 4% paraformaldehyde fixation and blocking with 10% FBS, cells were incubated with the primary anti-P2Y6 antibody (sc-15215; Santa Cruz Biotechnology, USA) in 1:1,000 dilution for 1 h. After washing with PBS, cells were incubated with peroxidase-conjugated secondary antibody anti-goat IgG (sc-2020, Santa Cruz Biotechnology, USA) in 1:5,000 dilutions.

P2Y6 [2] = target: T1, P2Y6; experiment: Functional readouts at P2Y6, summary statements; assay type: cell-based; conditions: Fig. 5a–d
P2Y6 [3] = target: T1, P2Y6; experiment: IP1 accumulation assay in HEK293 cells transfected with wildtype P2RY6; assay type: cell-based; set-up: expressed in transfected cells; host or cells: HEK293
Procedure: To measure intracellular IP3 the HitHunter® Inositol (1,4,5) Triphosphate Assay (DiscoveRx, USA) was used according to manufacturer′s protocol. HEK293 cells stably transfected with hP2RY6 were seeded in a 384-well Black microtiter plate (15,000 cells/well) (Greiner Bio One, Germany) and incubated with indicated concentrations of UDP and PGE2-G for 20 seconds. Reaction was stopped by adding 5 µl 0.2 N perchloric acid and measurement of IP3 was performed with the Fusion AlphaScreen multilabel reader (PerkinElmer Life Sciences) according to manufacturer′s protocol. To measure IP1, HEK293 cells expressing wildtype and mutant P2Y6 were seeded into 384-well plates (5,000 cells/well) 24 h prior assay. After aspiration of the medium, cells were incubated with indicated concentrations of agonists/antagonist for 1 h. IP1 measurements using the IP-one HTFR® assay kit (Cisbio assays, USA) were performed according to manufacturer′s protocol. The assays were performed with a final concentration of 1% DMSO.

P2Y6 [4] = target: T1, P2Y6; experiment: Intracellular Ca2+ measurement in HEK293 cells transfected with P2RY6; assay type: cell-based; set-up: expressed in transfected cells; host or cells: HEK293; conditions: HEK293 stably transfected with P2RY6, Fig. 5c,d
Procedure: (§1) RAW264.7 cells were grown in DMEM supplemented with 10% FBS, A7r5 (rat […]) cells in DMEM with 10% FBS, and A431 (human squamous carcinoma) cells in RPMI supplemented with 10% FBS. All cell lines were grown at 37 °C in a humidified 5% CO2 incubator. For functional assays, receptor constructs were heterologously expressed in human embryonic kidney (HEK293) cells upon transient or stable transfection. Cells were grown in DMEM/F12 supplemented with 10% FBS, 100 units/ml penicillin, and 100 µg/ml streptomycin. For the cAMP-inhibition assay, ERK1/2 phosphorylation assay, and Ca^2+ mobilization assay, cells were split into 96-well plates (2.0 × 10^4 cells/well) and transfected with 250 ng vector construct using MACSfectin™ (Miltenyi Biotec, Germany) according to manufacturer’s protocol. Empty vector (mock) served as the negative control. For siRNA experiments, cells were seeded in 6-well plates (4.0 × 10^5 and 6.0 × 10^5 cells/well for RAW264.7 and H1819, respectively). RAW264.7 and H1819 cells were transfected with 150 pMol of mP2RY6 siRNA and hP2RY6 siRNA (Santa Cruz Biotechnology, USA), respectively, using Viromer® Blue (Lipocalyx, Germany). As a negative control, control siRNA-A (Santa Cruz Biotechnology, USA) was used. FITC-labelled siRNA served as a transfection control.
To generate a cell line stably expressing P2Y6, HEK293 cells were seeded in 6-well plates (7.5 × 10^5 cells/well) and transfected with 3 µg vector using MACSfectin™ as transfection regent according to the manufacturer’s protocol. The pIRES-eGFP vector served as negative control. Stably transfected HEK293 cells were cultured in the presence of geneticin (500 µg/ml) for selection.
(§2) For fluorometric measurements of intracellular Ca^2+ levels with the FlexStationII instrument (Molecular Devices), RAW264.7 and H1819 cells were seeded into 96-well plates (3.0 × 10^4 cells/well) 24 h prior to assay. Ca^2+ measurements with transiently transfected HEK293 cells were performed 48 h after transfection. Cells were loaded with 200 µl Calcium 5 reagent (Explorer Kit, Molecular Devices, USA) for 60 min at 37 °C, and the assay was performed as described. Agonists and inhibitors were solved in DMSO (100x) and diluted […] in 96-well compound plates containing HBSS. 50 µl of compound solution were added to the assay plate resulting in final concentration of 1% DMSO. Fold-response was calculated by RFUmax − RFUmin (ligand)/RFUmax − RFUmin (vehicle). EC50 values were calculated by using GraphPad Prism6 software (GraphPad, USA).

P2Y6 [5] = target: T1, P2Y6; experiment: ERK1/2 phosphorylation (AlphaScreen SureFire) in P2RY6-transfected HEK293 cells; assay type: cell-based; set-up: expressed in transfected cells; host or cells: HEK293; conditions: HEK293 cells stably transfected with P2RY6, Fig. 3e
Procedure: Cells were transferred to serum-free medium 2 h prior to assay. Ligands and controls (10 µl of 10× concentrates) were added to 90 µl medium and incubated for 5 min at 37 °C. The final concentration of DMSO was 0.2%. The reaction was stopped by aspiration of the medium and addition of 50 µl lysis buffer (PerkinElmer Life Sciences). To measure ERK1/2 phosphorylation, the AlphaScreen® SureFire ERK 1/2 assay kit (PerkinElmer Life Sciences) was used with the high sensitivity protocol. Phosphorylated ERK1/2 was measured in 384-well white OptiPlate microplates (PerkinElmer Life Sciences) with the Fusion AlphaScreen multilabel reader (PerkinElmer Life Sciences).

RAW264.7 cells = conditions: RAW264.7 cells; cited from earlier work
[6] = target: T2, cannabinoid receptor 2 (Cnr2) (Homo sapiens, UniProt P34972); experiment: Intracellular Ca2+ measurement in CNR2-transfected HEK293 cells; assay type: cell-based; conditions: 200 nM of 2-AG, Fig. 2c
T2 construct: expressed in transfected cells; host or cells: HEK293
Procedure: as §1, with “RAW264.7 and H1819 cells were transfected with 150 pMol of mP2RY6 siRNA and hP2RY6 siRNA (Santa Cruz Biotechnology, USA), respectively, using Viromer® Blue (Lipocalyx, Germany). As a negative control, control siRNA-A (Santa Cruz Biotechnology, USA) was used. FITC-labelled siRNA served as a transfection control.” left out
For fluorometric measurements of intracellular Ca^2+ levels with the FlexStationII instrument (Molecular Devices), RAW264.7 and H1819 cells were seeded into 96-well plates (3.0 × 10^4 cells/well) 24 h prior to assay. […] Fold-response was calculated by RFUmax − RFUmin (ligand)/RFUmax − RFUmin (vehicle). EC50 values were calculated by using GraphPad Prism6 software (GraphPad, USA).

P2Y12 = target: T3, P2Y12 (Homo sapiens, UniProt Q9H244); experiment: Intracellular Ca2+ release in HEK293 cells transfected with P2RY12; assay type: cell-based; conditions: HEK293 transfected with P2RY12, Fig. 3f
T3 construct: expressed in transfected cells; host or cells: HEK293
Procedure: as §2

P2Y1 = target: T4, P2Y1 (Homo sapiens, UniProt P47900); experiment: Intracellular Ca2+ release in HEK293 cells transfected with P2RY1; assay type: cell-based; conditions: HEK293 transfected with P2RY1, Fig. 3f
T4 construct: expressed in transfected cells; host or cells: HEK293
Procedure: as §2

T1 sequence (Q15077 whole entry): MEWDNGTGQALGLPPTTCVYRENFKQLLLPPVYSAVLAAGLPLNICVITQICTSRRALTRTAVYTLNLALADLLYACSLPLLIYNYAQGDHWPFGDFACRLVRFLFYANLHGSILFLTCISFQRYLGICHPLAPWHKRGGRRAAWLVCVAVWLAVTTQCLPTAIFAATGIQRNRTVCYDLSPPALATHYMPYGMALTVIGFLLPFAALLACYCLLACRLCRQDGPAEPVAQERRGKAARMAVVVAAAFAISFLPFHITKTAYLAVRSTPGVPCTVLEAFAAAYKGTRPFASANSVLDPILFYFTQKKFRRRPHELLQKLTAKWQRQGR
T2 sequence (P34972 whole entry): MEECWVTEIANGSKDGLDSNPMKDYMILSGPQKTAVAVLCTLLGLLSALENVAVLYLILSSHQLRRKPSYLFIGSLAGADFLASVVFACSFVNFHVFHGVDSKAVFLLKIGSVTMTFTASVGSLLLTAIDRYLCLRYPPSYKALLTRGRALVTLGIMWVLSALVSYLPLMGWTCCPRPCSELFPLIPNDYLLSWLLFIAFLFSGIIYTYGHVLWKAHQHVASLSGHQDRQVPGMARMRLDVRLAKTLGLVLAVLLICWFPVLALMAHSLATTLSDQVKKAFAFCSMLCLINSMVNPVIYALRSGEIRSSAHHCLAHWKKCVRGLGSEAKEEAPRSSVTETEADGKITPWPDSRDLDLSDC
T3 sequence (Q9H244 whole entry, species assumed): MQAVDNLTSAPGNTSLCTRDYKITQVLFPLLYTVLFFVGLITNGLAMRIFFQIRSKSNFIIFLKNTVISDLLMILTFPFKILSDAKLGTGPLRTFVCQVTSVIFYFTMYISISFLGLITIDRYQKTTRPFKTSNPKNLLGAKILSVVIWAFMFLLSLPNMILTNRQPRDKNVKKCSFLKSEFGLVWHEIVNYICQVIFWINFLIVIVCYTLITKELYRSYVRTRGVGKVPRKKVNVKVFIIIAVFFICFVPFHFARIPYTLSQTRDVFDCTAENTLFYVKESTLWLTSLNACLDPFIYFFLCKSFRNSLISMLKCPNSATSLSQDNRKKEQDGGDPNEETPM
T4 sequence (P47900 whole entry, species assumed): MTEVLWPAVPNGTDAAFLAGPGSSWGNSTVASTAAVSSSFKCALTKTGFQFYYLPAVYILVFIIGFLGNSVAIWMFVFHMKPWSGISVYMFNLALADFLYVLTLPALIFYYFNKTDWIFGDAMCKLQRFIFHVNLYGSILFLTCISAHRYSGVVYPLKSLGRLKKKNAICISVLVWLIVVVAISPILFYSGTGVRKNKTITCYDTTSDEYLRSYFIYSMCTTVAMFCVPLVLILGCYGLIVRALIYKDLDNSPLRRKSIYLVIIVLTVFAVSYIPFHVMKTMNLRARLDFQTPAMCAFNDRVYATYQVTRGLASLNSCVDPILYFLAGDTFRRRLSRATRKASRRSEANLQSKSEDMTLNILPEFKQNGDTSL

Compound: S=C=Nc1cccc(NC(=S)NCCCCNC(=S)Nc2cccc(N=C=S)c2)c1 [MRS2578]
- effect of antagonist on agonist-induced internalization (P2Y6 [1]): blocked the internalization
- mode of antagonism (P2Y6 [2]): antagonist with mixed properties (competitive and non-competitive)
- effect of antagonist on UDP- and PGE2-G-triggered IP1 accumulation (P2Y6 [3]; HEK293 stably transfected with P2RY6, increasing antagonist concentrations, Fig. 5a,b): reduced both the efficacies and potencies; also recorded: reduced both, the efficacies and potencies
- effect of antagonist on UDP- and PGE2-G-triggered Ca2+ release (P2Y6 [4]): same effects; also recorded: reduced both, the efficacies and potencies

- ERK1/2 phosphorylation response (P2Y6 [5]): no effect
Compound: CCCCC[C@H](O)/C=C/[C@@H]1[C@@H](C/C=C\CCCC(=O)O)[C@@H](O)C[C@H]1O [PGF2α]
- effect in Ca2+ measurements (RAW264.7 cells): led to Ca^2+ release

- ERK1/2 phosphorylation response (P2Y6 [5]): no response
Compound: CCCCC[C@H](O)/C=C/[C@H]1[C@H](O)CC(=O)[C@@H]1C/C=C\CCCC(=O)O [PGE2]
- effect in Ca2+ measurements (RAW264.7 cells): no effect

Compound: CCCCC[C@H](O)/C=C/[C@H]1C(=O)C[C@H](O)[C@@H]1C/C=C\CCCC(=O)OC(CO)CO [PGD2-G]
- effect in Ca2+ measurements (RAW264.7 cells): no effect

Compound: C=C1C(=O)N[C@@H](C)C(=O)N(C)[C@@H](C)C(=O)N[C@@H]([C@H](OC(=O)[C@@H](NC(=O)CC)[C@H](O)C(C)C)C(C)C)C(=O)N(C)[C@@H]([C@@H](C)OC)C(=O)O[C@H](C(C)C)[C@H](NC(C)=O)C(=O)O[C@H](Cc2ccccc2)C(=O)N1C [UBO] (Ac-[X1][dPhLac][NMeDha]A[NMeA][X1](Leu(3R-OH,Nα-propionyl))[NMeT](Me); ester 1-C)
- block of IP formation after stimulation with UDP and PGE2-G (P2Y6 [3]; IP1 accumulation, P2RY6-transfected HEK293, Fig. 3d): significantly block

Compound: CCCCC/C=C\C/C=C\C/C=C\C/C=C\CCCC(=O)OC(CO)CO [2-AG, 2-arachidonoylglycerol]
- effect on intracellular Ca2+ [6]: robust intracellular Ca^2+ increase; also recorded: elevated intracellular Ca^2+

- ERK1/2 phosphorylation response (P2Y6 [5]): no response
Compound: CCCCC[C@H](O)/C=C/[C@@H]1[C@@H](C/C=C\CCCC(=O)OC(CO)CO)[C@@H](O)C[C@H]1O [PGF2α-G]
- effect in Ca2+ measurements (RAW264.7 cells): no effect

- Ca2+ release (P2Y12): led to Ca^2+ release
- Ca2+ release (P2Y1): led to Ca^2+ release
Compound: Nc1ncnc2c1ncn2[C@@H]1O[C@H](COP(=O)(O)OP(=O)(O)O)[C@@H](O)[C@H]1O [ADP]

Source: PMC5443783, “Prostaglandin E2 glyceryl ester is an endogenous agonist of the nucleotide receptor P2Y6” (Scientific Reports, 2017)
